Key:
[1] = test system: HCT15 cell line xenograft; assay: CRC cell line xenograft efficacy, HCT15; assay type: in vivo, mice; settings: 25 mg/kg orally twice daily, 14–28 days, end of study tumor volumes
Method: (§1) For cell line xenografts, CRC cells were harvested in exponential phase growth and resuspended in a 1:1 mixture of serum-free RPMI 1640 and Matrigel (BD Biosciences). Five to ten million cells per mouse were injected subcutaneously into the flank using a 23-gauge needle. Mice were monitored daily for signs of toxicity and were weighed twice weekly. Tumor size was evaluated twice per week by caliper measurements using the following formula: tumor volume = length × width^2 × 0.52. When tumors reached 200–300 mm^3 mice were randomized into two groups with at least 10 tumors per group. Mice were then treated for 14–28 days (until control tumor volume reach ∼1500 mm^3) with either vehicle control (0.5% methylcellulose), or PF-3758309 (25 mg/kg) twice daily by oral gavage.
(§2) Human tumor xenograft models were used to evaluate the efficacy of PF-309 in vivo. Eleven different CRC cell line tumor xenografts were treated with 25 mg/kg PF-309 twice daily by oral gavage for 14–28 days (until control tumor volumes reached ∼1500 mm^3). Tumor volumes were measured throughout the study and the % growth inhibition was calculated from the average end of study tumor volumes by:
(§3) % Growth Inhibition= (average control volume−average treated volume)/average control volume×100%

[2] = test system: SW480 cell line xenograft; assay: CRC cell line xenograft efficacy, SW480; assay type: in vivo, mice; settings: 25 mg/kg orally twice daily, 14–28 days, end of study tumor volumes
Method: as §1, §2, §3

[3] = Tumor concentration 6 h after a single dose, P-gp tumor concentration study; assay type: in vivo, mice; settings: single dose 25 mg/kg, 6 h post treatment; SW480 and HCT15 vs GEO and HCT116 xenografts
Method: Plasma and tumor samples were collected 1 h post treatment at the end of therapeutic studies or 6 h post treatment for P-gp tumor concentration studies. PF-309 was measured in mouse plasma and tumor tissue using a validated LC/MS/MS assay carried out by the University of Colorado Cancer Center Pharmacology Shared Resource. Positive ion electrospray ionization (ESI) mass spectra were obtained with a 3200 QTrap triple quadrupole mass spectrometer (Applied Biosystems Inc., Foster City, CA, USA) with a turboionspray source interfaced to an Agilent 1200 Series binary HPLC system (Agilent Technologies Inc., Santa Clara, CA, USA), and a HTC-PAL auto-sampler (LEAP Technologies, Carrboro, NC, USA). […]
Finally, we determined if the presence of P-gp affects tumor concentration. We evaluated the tumor concentration in two tumor xenograft lines with high ABCB1 gene expression (SW480 and HCT15) and two tumor xenografts with low ABCB1 gene expression (GEO and HCT116). Tumors from animals treated with a single dose of 25 mg/kg PF-309 were collected 6 h post treatment and concentrations analyzed. […] Tumors were also analyzed by western blot to confirm the presence or absence of P-gp, which agreed with the gene expression data (Figure 7B).

DLD-1 = assay: Cell proliferation assay, DLD-1; assay type: cell-based, human
Method: Cytotoxic/proliferation effects were determined using the sulforhodamine B (SRB) assay (Skehan et al., [1990]) or by resazurin. Briefly, cells in logarithmic growth phase were transferred to 96 well flat bottom plates with lids. One-hundred microliter cell suspensions containing 1500–5000 viable cells were plated into each well and incubated overnight prior to exposure with increasing concentrations of PF-309 for 3–5 days, dependent upon cell type. Media was removed and cells were fixed with cold 10% trichloroacetic acid for 30 min at 4°C. Cells were then washed with water and stained with 0.4% SRB (Fisher Sci., Pittsburgh, PA, USA) for 30 min at room temperature, washed again with 1% acetic acid, followed by stain solubilization with 10 mM tris at room temperature. The plate was then read on a plate reader (Biotek Synergy 2, Winooski, VT, USA) set at an absorbance wavelength of 565 nm. Cell proliferation curves were derived from the raw absorbance (OD) data.
In a subset of CRC cell lines, western blotting, and rhodamine efflux was used to verify the expression and function of P-gp. Consistent with the gene expression data, the sensitive cell lines, RKO, HCT116, and Colo205 show no P-gp expression and no functional P-gp, and the resistant lines, SW948, HCT15, and SW1116 express functional P-gp (Figures 3A,B). […]

[4] = test system: Colo201 cell line xenograft; assay: CRC cell line xenograft efficacy, Colo201; assay type: in vivo, mice; settings: 25 mg/kg orally twice daily, 14–28 days, end of study tumor volumes
Method: as §1, §2, §3

tumor concentration, high tumor P-gp vs low ABCB1 expression [3]: ∼four fold lower | shift in the IC50 by shRNA knockdown of P-gp (DLD-1; DLD-1 cells, P-gp knockdown vs control shRNA): four to six fold | IC50 (DLD-1; Homo sapiens, DLD-1, PF-309 alone, 72 h): 278 nM
SMILES: Cc1nc(Nc2n[nH]c3c2CN(C(=O)N[C@H](CN(C)C)c2ccccc2)C3(C)C)c2sccc2n1 [PF-309]
% Growth inhibition [1]: 18% | % Growth inhibition [2]: 42% | % Growth inhibition [4]: 45%
